Entries after “also recorded” stand apart in the source; their conditions may differ.
Experiments:
[1] = Storage at elevated temperature/humidity, solid form checked by XRPD; type: physicochemical; conditions: for XRPD after storage at 25° C./97% RH for 1 week (solid form) / XRPD after storage at 40° C./75% RH for 1 week (solid form): 1 week (7 days); for Form change on exposure to high RH (>90%): e.g. 7 days / prolonged exposure
Protocol: Samples 1 and 2 were characterized by XRPD at various conditions. XRPD patterns were collected for the samples at ambient condition as the samples were provided; at variable temperature (VT-XRPD); at variable humidity (VH-XRPD); after the samples were exposed to 40° C./75% RH for 1 week and 25° C./97% RH for 1 week, respectively; and after a GVS measurement wherein the samples were exposed to 0-90% RH. Samples 1 and 2 were also characterized by ^1H NMR, TGA, DSC, KF, IC, GVS (exposed to 0-90% RH), PLM, SEM, and HPLC (Table 5). […]

[2] = Gravimetric Vapour Sorption (GVS) with XRPD post-GVS; type: physicochemical; conditions: for GVS total mass change between 0 and 90% RH: 0-90% RH (Table 17); for Form change at high RH (>90%) in GVS experiments: above 90% RH; for XRPD post GVS (uptake 0-90% RH): after GVS 0-90% RH
Protocol: Sorption isotherms were obtained using a SMS DVS Intrinsic moisture sorption analyzer, controlled by DVS Intrinsic Control software v1.0.1.2 (or v 1.0.1.3). The sample temperature was maintained at 25° C. by the instrument controls. The humidity was controlled by mixing streams of dry and wet nitrogen, with a total flow rate of 200 ml/min. The relative humidity was measured by a calibrated Rotronic probe (dynamic range of 1.0-100% RH), located near the sample. The weight change, (mass relaxation) of the sample as a function of % RH was constantly monitored by the microbalance (accuracy ±0.005 mg).
A sample (e.g., 20 mg) was placed in a tared mesh stainless steel basket under ambient conditions. The sample was loaded and unloaded at 40% RH and 25° C. (typical room conditions). A moisture sorption isotherm was performed as outlined below (2 scans giving 1 complete cycle). Standard isotherms were performed at 25° C. at 10% RH intervals over a 0-90% RH range. Data analysis was carried out using Microsoft Excel using DVS Analysis Suite v6.2 (or 6.1 or 6.0).
In a cycle of 2 scans, the first scan was performed with adsorption of 40-90% RH, followed by a second scan with desorption of 90-0% RH and adsorption of 0-40% RH, with intervals of 10% RH, at 25° C. with stability dm/dt of 0.002% ° C./min. The sorption time was 6 hr time out.
The sample was recovered after completion of the isotherm and re-analyzed by XRPD. Custom moisture sorption methods were also performed at 25° C. at fixed % RH intervals over a 0-95% RH range, with the purpose to fully understand the sorption/desorption behavior of the compound under elevated conditions.
To further explore the humidity behavior of Sample 1 (Form 1) upon exposure to high RH (>90%), custom GVS experiments were designed and carried out. Initially, the sample was treated by holding at 90 and then 95% RH for ˜12 hours to see if hydrate formation could be observed (HighRH method of Steps 1 and 2 of Table 2, FIGS. 6C-6D).
To test the stability of the hydrated state, GVS method HighRH_Desorp_3 was designed with a desorption step and subsequent adsorption (see Table 2 with steps 1-4, FIGS. 6E-6F).
Finally, to ensure complete conversion to the anhydrous and hydrated forms, a GVS experiment was designed to increase both the length of the desorption step at 0% RH, and the adsorption step at 95% RH, respectively (Table 3). Based on the weight stabilization observed in the kinetic plots for Sample 1 in HighRH and HighRH_Desorp_3 methods discussed above (FIGS. 6D and 6F), a holding time of 800 mins at 0% RH and 1600 mins at 95% RH were chosen. A double cycle was also recorded for this experiment to observe whether the sample would return to Form 1 or form a mixed anhydrous/hydrated species (see Table 3, FIGS. 6G-6H).

[3] = Variable humidity XRPD (VH-XRPD); type: physicochemical
Protocol: Samples run under non-ambient conditions were prepared by gently packing into a cavity, cut into a silicon wafer to obtain a flat surface and mounted onto a humidity stage with an Ansyco controller and humidity sensor positioned directly next to the sample holder. The data were collected at 298.15 K with water temperature of 35.0° C., in an angular range of 3 to 31° 2θ, with a step size of 0.025° 2θ, a collection time of 2.0 sec/step, and a collection time at each % RH was 41 min 28 sec.
X-Ray Powder Diffraction (XRPD) patterns were collected at variable humidity values from 0 to 95% RH, based upon the humidity behavior of each compound observed during GVS experiments (described herein). For each Variable Humidity X-Ray Powder Diffraction (VH-XRPD) experiment performed, the % RH values selected are provided alongside the relevant experimental result. Full tables of detailing the % RH value at each collection point and the associated delay time at each value are provided in Tables 10-12.
To fully characterize the polymorphic behavior of Samples 1 and 2 at variable humidity, and to collect reference XRPD patterns for the ‘pure’ anhydrous Form 1 and Form 2 material, and ‘pure’ hydrated Form 3 material, Variable Humidity (VH) XRPD experiments were conducted on Samples 1 and 2. Initially, VH-XRPD experiments were conducted using Sample 1, and XRPD diffractograms were collected at selected humidity values, in line with those collected during GVS experiments (see FIGS. 6E-6F). XRPD diffractograms were collected initially at ambient RH, then collected over 24 hours at ˜95% RH and finally collected during desorption steps to 0% RH and over 10 hours at 0% RH (see FIG. 4C).

[4] = Solubility assessment and polymorph screen on Sample 1 (Form 1) of RAD1901-2HCl in 24 solvent systems; type: physicochemical
Protocol: Solubility assessment was carried out on the Sample 1 of RAD1901-2HCl (majorly Form 1 shown by XRPD) in 24 solvent systems in HPLC vials (sample IDs: A1 to A24). RAD1901-2HCl (25 mg) was treated with increasing volumes of solvent until the material fully dissolved or until a maximum of 60 vol had been used (Table 13).
After each addition of solvent, the system was stirred for 5 to 10 minutes at 25° C., then shaken at 50° C. for 5 to 10 minutes, and observations made. Samples were allowed to stand at room temperature for 5 min before the addition of a new aliquot of solvent. After the assessment was completed, the suspensions obtained were matured (maturation) and the clear solutions were cooled (cooling) and slowly evaporated (evaporation) as described below. All solids recovered from maturation, cooling and evaporation experiments were analyzed by high resolution XRPD.
The suspensions obtained during the solubility assessment were matured by shaken in a maturation chamber between 50° C. and RT (8 hr per cycle) for up to 5 days. Then the mixture was allowed to stand at room temperature for 10 minutes. The resulting solids were filtered and air dried and analyzed by XRPD. The clear solutions obtained during maturation were evaporated in ambient conditions and the resulting residues were analyzed by XRPD.
The clear solutions obtained during the course of the solubility assessment were cooled on a Polar Bear device from 50° C. to 5° C. at 0.1° C./min. Solids obtained upon cooling were recovered from the vials, air dried and analyzed by XRPD. If no solid was obtained, the solutions were evaporated slowly through a needle inserted into the septum cap of the vial until a solid appeared at ambient conditions and the resulting solids were filtered, air dried and analyzed by XRPD.

[5] = Variable temperature XRPD (VT-XRPD); type: physicochemical
Protocol: Samples run under non-ambient conditions were mounted on a silicon wafer with a heat-conducting compound. The sample was then heated from ambient to the appropriate temperature at 20° C./min and subsequently held isothermally for 1 minute before data collection was initiated.
Variable Temperature XRPD (VT-XRPD) experiments were therefore conducted to examine the thermal behavior of Sample 2 observed by DSC (see FIG. 9B). […] (blue) as Form 1 material (FIG. 5D).

estrogen receptor (ER) = biological target: T1, estrogen receptor (ER) (Homo sapiens, UniProt P03372); conditions: cited from earlier work
T1 sequence (P03372 1-595): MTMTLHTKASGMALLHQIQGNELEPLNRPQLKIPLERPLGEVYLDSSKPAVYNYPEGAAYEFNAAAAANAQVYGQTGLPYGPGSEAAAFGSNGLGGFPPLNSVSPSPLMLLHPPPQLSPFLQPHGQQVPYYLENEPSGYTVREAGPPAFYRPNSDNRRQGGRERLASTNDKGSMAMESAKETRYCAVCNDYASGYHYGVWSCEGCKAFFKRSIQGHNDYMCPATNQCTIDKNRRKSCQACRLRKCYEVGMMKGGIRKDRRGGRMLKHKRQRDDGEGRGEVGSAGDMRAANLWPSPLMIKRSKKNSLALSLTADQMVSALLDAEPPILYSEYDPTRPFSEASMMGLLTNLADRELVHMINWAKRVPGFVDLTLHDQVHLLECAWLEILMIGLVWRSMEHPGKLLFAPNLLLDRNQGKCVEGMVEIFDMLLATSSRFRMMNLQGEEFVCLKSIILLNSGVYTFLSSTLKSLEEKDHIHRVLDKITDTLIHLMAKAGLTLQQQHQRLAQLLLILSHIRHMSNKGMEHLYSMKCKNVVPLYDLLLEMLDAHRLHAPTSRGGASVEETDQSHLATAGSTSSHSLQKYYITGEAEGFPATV

[6] = Storage at elevated temperature/humidity, solid form checked by XRPD; type: physicochemical

CCNCCc1ccc(CN(CC)c2cc(OC)ccc2[C@@H]2CCc3cc(O)ccc3C2)cc1.Cl.Cl [Form 1]
XRPD after storage at 25° C./97% RH for 1 week (solid form) [1]: converted to Form 3; also recorded: conversion towards a hydrated state Form 3; also recorded: Converts to Form 3 at 25° C./
XRPD after storage at 40° C./75% RH for 1 week (solid form) [1]: stable; also recorded: Remains as Form 1 at 40° C./
Form change on exposure to high RH (>90%) [1]: irreversibly converted to the hydrate Form 3
Stability of the form (heat/humidity), in words ([1]; summary of characterizations of Samples 1 and 2): stable
GVS: reversibility of uptake and loss ([2]; 0-90% RH): exhibits reversible uptake and loss,
Hygroscopicity (GVS), in words ([2]; 0-90% RH): lower hygroscopicity; also recorded: relatively non-hygroscopic; also recorded: low hygroscopicity; also recorded: Sample is slightly hygroscopic, but
GVS total mass change between 0 and 90% RH [2]: Total mass change of 1.7% wt.
Form change at high RH (>90%) in GVS experiments [2]: started converting to the hydrate Form 3
XRPD post GVS (uptake 0-90% RH) ([2]; 25° C.): unchanged XRPD pattern; also recorded: No changes; also recorded: Form 1

CCNCCc1ccc(CN(CC)c2cc(OC)ccc2[C@@H]2CCc3cc(O)ccc3C2)cc1.Cl.Cl [Sample 1]
XRPD after storage at 25° C./97% RH for 1 week (solid form) [1]: Form 3
XRPD after storage at 40° C./75% RH for 1 week (solid form) [1]: Form 1
Form change on exposure to high RH (>90%) [1]: converted to the hydrate Form 3
GVS: reversibility of uptake and loss ([2]; 0-90% RH): (reversible)
GVS uptake 0-90% RH ([2]; 0-90% RH, 25° C.): 1.8% wt.
GVS mass uptake when held at 95% RH for ~12 hours (HighRH method) ([2]; 95% RH, ~12 hours): 5-6 % wt.
Form change at high RH (>90%) in GVS experiments [2]: irreversibly converted to a hydrate (Form 3)
XRPD post GVS (uptake 0-90% RH) ([2]; 25° C.): Form 1
XRPD post-GVS (HighRH_DoubleCycle_2 method) ([2]; double cycle, 1600 mins at 95% RH, 800 mins at 0% RH): Form 3
XRPD post-GVS (HighRH method) ([2]; held at 90 then 95% RH for ~12 hours): mixture of states or incomplete conversion
XRPD post-GVS (HighRH_Desorp_3 method) ([2]; single cycle to 95% RH, desorption to 0% RH, adsorption to 40% RH): mixture of Form 1 and Form 3
VH-XRPD: form change over 24 hr at ~95% RH ([3]; ~95% RH, 24 hr): unable to show a direct conversion; also recorded: Form 3 over
Solubility in alcohols, esters, and hydrocarbon solvents, in words ([4]; alcohols, esters, hydrocarbon solvents): low solubility
Solubility in water, in words ([4]; water): highly soluble
Solubility in water and t-butanol/water (1:1), in words ([4]; water, t-butanol/water (1:1)): high solubility

CCNCCc1ccc(CN(CC)c2cc(OC)ccc2[C@@H]2CCc3cc(O)ccc3C2)cc1.Cl.Cl [Form 1B]
XRPD after storage at 25° C./97% RH for 1 week (solid form) ([1]; listed as Pattern B): Unchanged post storage at both conditions
XRPD after storage at 40° C./75% RH for 1 week (solid form) ([1]; listed as Pattern B): Unchanged post storage at both conditions
GVS total mass change between 0 and 90% RH ([2]; listed as Pattern B): Total change in mass of 1.4% wt. between 0 and 90% RH,
XRPD post GVS (uptake 0-90% RH) ([2]; 25° C., listed as Pattern B): no hysteresis. XRPD post-GVS is consistent with Pattern

CCNCCc1ccc(CN(CC)c2cc(OC)ccc2[C@@H]2CCc3cc(O)ccc3C2)cc1.Cl.Cl [Form 2]
Form obtained on exposure to >40% RH for 7 days ([1]; >40% RH, 7 days): Form 3
Hygroscopicity (GVS), in words ([2]; 0-90% RH): hygroscopic

CCNCCc1ccc(CN(CC)c2cc(OC)ccc2[C@@H]2CCc3cc(O)ccc3C2)cc1.Cl.Cl [Sample 2]
XRPD after storage at 25° C./97% RH for 1 week (solid form) [1]: Form 3
XRPD after storage at 40° C./75% RH for 1 week (solid form) [1]: Form 3
Hygroscopicity (GVS), in words ([2]; 0-90% RH): hygroscopic
XRPD post GVS (uptake 0-90% RH) ([2]; 25° C.): mixture of Form 2 and Form 3
VH-XRPD: form at 0% RH ([3]; 0% RH): 5E). Form 2 at 0%
VH-XRPD: form change at >90% RH ([3]; >90% RH (92-93% RH)): conversion toward the hydrated state; also recorded: Conversion to Form 3
VT-XRPD: form after melt and recrystallization above 175° C. ([5]; heated above 175° C.): converted to Form 1; also recorded: recrystallized as Form 1
VT-XRPD: form obtained on heating to 100° C. ([5]; heating to 100° C.): converted to Form 2; also recorded: Anhydrous Form 2

CCNCCc1ccc(CN(CC)c2cc(OC)ccc2[C@@H]2CCc3cc(O)ccc3C2)cc1 [RAD1901]
Binding selectivity for the estrogen receptor (ER), in words (estrogen receptor (ER)): good selectivity

CCNCCc1ccc(CN(CC)c2cc(OC)ccc2[C@@H]2CCc3cc(O)ccc3C2)cc1.Cl.Cl [Lyophilization in water]
XRPD post storage at 25° C./97% RH (10 days) ([6]; 25° C./97% RH): Consistent with Form 3
XRPD post storage at 40° C./75% RH (10 days) ([6]; 40° C./75% RH): Consistent with Form 3

— patent publication US11643385B2, “Polymorphic forms of RAD1901-2HCl” (RADIUS PHARMACEUTICALS, INC., priority 2018, dated 2023)
